Assay results as given in article PMC6158767, “Vistusertib (dual m-TORC1/2 inhibitor) in combination with paclitaxel in patients with high-grade serous ovarian and squamous non-small-cell lung cancer” (Annals of Oncology, 2018).
Like-named read-outs stand apart in the source and are kept apart here. One block for each molecule: values may come before it.

Columns and labels:
[1] = test system: Ser^473 p-AKT in platelet-rich plasma; experiment: Phosphorylation of AKT (Ser473) in platelet-rich plasma, MSD electrochemiluminescent immunoassay; type: in vivo, human
Method: Figure 1. Pharmacodynamic profile of vistusertib at 50 mg bd 3/7. Phosphorylation of AKT (Ser473) in platelet-rich plasma was quantified using MSD electrochemiluminescent immunoassays and normalised to corresponding total AKT values. Baseline values were established prior to the start of treatment. On C1D1, only paclitaxel (80 mg/m^2) was administered and a non-significant rise in p-ATK at 4 h following treatment was noted. […] On C1D8, the combination of paclitaxel and vistusertib was administered, which caused a significant reduction of p-AKT compared with baseline. Points represent individual patients, orange line represents mean of up to N = 6 patients. Four samples were excluded because of haemolysis, which interfered with the assay (*P<0.05; paired t-test).
pAkt was assessed in platelet rich plasma (PRP) using a sandwich immunoassay as per manufacturer’s instructions (K11100D, Meso Scale Discovery, Maryland, USA) which consisted of a multiplex assay with plates pre-coated with phospho(Ser473) Akt and total Akt capture antibodies. These plates were blocked for 1 hour, incubated with sample for 1 hour, and finally incubated with an anti-total Akt detection antibody conjugated to MSD-SULFO-TAG for 1 hour before being detected on a Meso Scale Discovery Sector Imager 6000 using electrochemiluminescence in order to determine the percentage of Akt phosphorylated. During validation the inter-assay precision ranged from 6.75 to 7.17%.

[2] = Pharmacokinetic sampling (plasma, LC-MS/MS) in the dose-escalation arm; conditions: paclitaxel with vistusertib
Method: (§3) This method is applicable to the analysis of AZD2014 in human plasma treated with K2EDTA anticoagulant. AZD2014 and the internal standard (ISTD), 13C22H2AZ12729279 are extracted from human plasma by solid-phase extraction (SPE). After evaporation under nitrogen, the residue is reconstituted and analysed using liquid chromatography (LC) with tandem mass spectrometric detection (MS/MS). The standard curve range is from 20.0 to 20,000 ng/mL for AZD2014, using a plasma sample volume of 0.0250 mL.

[3] = test system: patients with advanced solid tumours; experiment: Toxicity (NCI-CTCAE V4.0), DLT and MTD in the dose-escalation cohort, vistusertib with weekly paclitaxel 80 mg/m^2
Method: The dose of paclitaxel administered was 80 mg/m^2 once weekly for 6/7 weeks in a 7-week cycle. In the first week of the dose-escalation cohorts, patients received only paclitaxel on C1D1, then vistusertib on C1D3 to allow for PK and PD samplings. Patients then received weekly paclitaxel (on days 8, 15, 22, 29, and 36) with vistusertib, also starting on days 8, 15, 22, 29, and 36, given orally twice daily either for three consecutive days per week (schedule A: 3/7 days, 6/7 weeks) or two consecutive days per week (schedule B: 2/7 days, 6/7 weeks). In the dose expansion, schedule A was taken forward with patients dosing with vistusertib weekly on days 1–3 for 6 weeks of a 7-week cycle.

[4] = test system: high-grade serous ovarian cancer (HGSOC); experiment: Ovarian cancer expansion: RECIST v1.1 / GCIG CA125 response and progression-free survival; type: in vivo, human
Method: (§1) RECIST v1.1 was used to assess tumour response supported by GCIG CA125 response in patients with HGSOC. Response was assessed at the end of every 7-week cycle.
(§2) Progression-free survival was estimated by the Kaplan–Meier method, beginning on the day of the first dose (C1D1) and continuing until disease progression. Patients who came off study for reasons other than disease progression (clinical or RECIST) were censored. This study is registered with ClinicalTrials.gov, identifier: NCT02193633.
Twenty-seven patients with relapsed/refractory HGSOC were treated at the RP2D. Two patients were replaced as per protocol and were not considered for assessment of response. The median number of previous treatments was three: the majority (26/27; 96%) of patients having received paclitaxel and 3/27 patients (11%) having previously received weekly paclitaxel (supplementary Table S2, available at Annals of Oncology online). The RECIST and CA125 response rates were 13/25 (52%) and 16/25 (64%), respectively (Figure 2A). The mPFS was 5·8 months (95% CI: 3.3–18.5).

[5] = test system: squamous non-small-cell lung cancer (sqNSCLC); experiment: Squamous lung cancer expansion: RECIST v1.1 response and progression-free survival; type: in vivo, human
Method: as §1, §2

patients with sqNSCLC = experiment: Toxicity (NCI-CTCAE V4.0) in the squamous non-small cell lung cancer expansion cohort
Method: Patients administered with 80 mg/m^2 paclitaxel with 50 mg vistusertib bd 3/7 days for 6/7 weeks, dosing starting concurrently on day 1 of each week
Patients administered with 80 mg/m^2 paclitaxel with 25 mg vistusertib bd 3/7 days for 6/7 weeks, dosing starting concurrently on day 1 of each week treated at paclitaxel 80 mg/m^2/week and vistusertib 25 mg bd 3/7.

sqNSCLC = experiment: RECIST response in the dose-escalation cohort; type: in vivo, human; conditions: vistusertib + weekly paclitaxel
Method: as §1

[6] = in vivo
Method: as §3

[7] = parameters: method as in PMID 23375793, PMID 25805799; conditions: cited from earlier work
ovarian cancer models = test system: ovarian cancer models; parameters: method as in PMID 29371953; conditions: in vitro and in vivo; cited from earlier work
clinical = conditions: human, in vivo, geometric mean; for AUC(0-t): AUClast of vistusertib; for Cmax: Cmax of vistusertib; for half-life: HL Lambda_z (half-life) of vistusertib
Method: as §3

patients = experiment: Toxicity (NCI-CTCAE V4.0), whole study: hyperglycaemia incidence; conditions: vistusertib + weekly paclitaxel
[8] = HGSOC expansion, 50 mg vistusertib bd 3/7 days + paclitaxel 80 mg/m^2
[9] = HGSOC expansion, 50 mg vistusertib bd 3/7 days + paclitaxel 80 mg/m^2, 25 patients
[10] = sqNSCLC expansion, 25 mg cohort
[11] = sqNSCLC expansion, 25 mg vistusertib bd 3/7 days + paclitaxel 80 mg/m^2
[12] = Lung Expansion 25 mg + paclitaxel (N=24), all grades
[13] = Lung Expansion 50 mg + paclitaxel (N=17), all grades

Drug-drug PK interaction on drug exposure, combination versus either agent alone [2]: no drug-drug PK interaction
SMILES: CC(=O)O[C@H]1C(=O)[C@@]2(C)[C@H]([C@H](OC(=O)c3ccccc3)[C@]3(O)C[C@H](OC(=O)[C@H](O)[C@@H](NC(=O)c4ccccc4)c4ccccc4)C(C)=C1C3(C)C)[C@]1(OC(C)=O)CO[C@@H]1C[C@@H]2O [paclitaxel]
Increase in Ser^473 p-AKT levels in PRP ([1]; 4 h following 80 mg/m^2 paclitaxel alone (C1D1), P = 0.14, statistically non-significant): 1.4 fold

SMILES: CNC(=O)c1cccc(-c2ccc3c(N4CCOC[C@@H]4C)nc(N4CCOC[C@@H]4C)nc3n2)c1 [vistusertib]
Recommended phase II dose (RP2D) of vistusertib ([3]; bd 3/7 days for 6/7 weeks, with 80 mg/m^2 weekly paclitaxel): 50 mg
Dose-limiting toxicities ([3]; in vivo): rash
Dose-limiting toxicities ([3]; schedule A (bd 3/7 days) with weekly paclitaxel 80 mg/m^2): fatigue and mucositis
Maximally tolerated dose (MTD) of vistusertib ([3]; schedule A, bd 3/7 days for 6/7 weeks, with 80 mg/m^2 weekly paclitaxel): 50 mg
Maximally tolerated dose (MTD) of vistusertib ([3]; schedule B, bd 2/7 days for 6/7 weeks, with 80 mg/m^2 weekly paclitaxel): 75 mg
Ser^473 p-AKT lower than corresponding time-point following paclitaxel alone ([1]; 4 h, vistusertib 50 mg bd 3/7 + paclitaxel): 62%
Ser^473 p-AKT in PRP, % of pre-dose levels ([1]; 4 h post-vistusertib, 50 mg bd 3/7 in addition to paclitaxel (C1D8), P = 0.0495): 53%
Change of p-AKT in PRP after single dose of vistusertib alone ([1]; C1D4, 50 mg): non-significant reduction
Patients with reduction in size of their tumour ([4]; HGSOC expansion at RP2D): 76%
Patients with reduction in size of their tumour, number ([4]; HGSOC expansion at RP2D): 19 of 25
GCIG CA125 responses, patients [4, 8]: 16/25
Median progression-free survival (mPFS) [4, 8]: 5.8 months
RECIST responses (partial response), patients [4, 8]: 13/25
GCIG CA125 response rate [4, 9]: 64%
RECIST response rate [4, 9]: 52%
RECIST response, N with PR ([4]; OVARIAN Expansion (50 mg AZD2014/80 mg Paclitaxel), 27 patients): 13 PR
RECIST response, N with PR ([5]; LUNG Expansion (25 mg AZD2014/80 mg Paclitaxel), 24 patients): 8
Patients with reduction in the size of their tumour [5, 10]: 78%
Patients with reduction in the size of their tumour, number [5, 10]: Eighteen of the 23
Median progression-free survival (mPFS) [5, 11]: 5.8 months
RECIST responses (partial response), patients [5, 11]: 8/23
RECIST response rate ([5]; sqNSCLC expansion, 25 mg vistusertib bd 3/7 days + paclitaxel 80 mg/m^2, 23 patients): 35%
Abdominal cramps/pain, % of patients (patients with sqNSCLC; [12]): 8%
Alopecia, % of patients (patients with sqNSCLC; [12]): 54%
Haemoptysis, % of patients (patients with sqNSCLC; [12]): 4%
Aches and pain, % of patients (patients with sqNSCLC; [13]): 12%
Alopecia, % of patients (patients with sqNSCLC; [13]): 12%
Tolerated dose of vistusertib in sqNSCLC (patients with sqNSCLC; human, in vivo): 25 mg
Partial responses in patients with sqNSCLC (sqNSCLC): two partial responses
AUC versus dose of vistusertib [6]: approximately dose proportional
Drug-drug PK interaction on drug exposure, combination versus either agent alone [6]: no drug-drug PK interaction
half-life [7]: short half-life
Effect of the combination of vistusertib and paclitaxel on growth (ovarian cancer models): additive effect
AUC(0-t) (clinical; 25 mg): 2090 ng·h/mL
Cmax (clinical; 25 mg): 579 ng/mL
half-life (clinical; 25 mg): 3.3 h
AUC(0-t) (clinical; 50 mg): 2600 ng·h/mL
Cmax (clinical; 50 mg): 840 ng/mL
half-life (clinical; 50 mg): 1.8 h
AUC(0-t) (clinical; 75 mg): 7540 ng·h/mL
Cmax (clinical; 75 mg): 1840 ng/mL
half-life (clinical; 75 mg): 2.7 h
AUC(0-t) (clinical; 100 mg): 7560 ng·h/mL
Cmax (clinical; 100 mg): 1960 ng/mL
half-life (clinical; 100 mg): 3 h
Hyperglycaemia, all grades, % of patients (patients): 11%
Hyperglycaemia, grade 3/4, % of patients (patients): 1%
